Results published in US20170197977A9, “COMPOSITIONS AND METHODS FOR TREATING NEURODEGENERATIVE DISEASE” (COGNITION THERAPEUTICS, INC., priority 2011, published 2017).
Entries after “also recorded” stand apart in the source; their conditions may differ.

Experiments:
100 known receptors = assay: Test for action at 100 known receptors; assay type: binding, human; conditions: 10 μM
Protocol: It was also tested for its ability to block downstream signaling induced by agonists or antagonists of a given human receptor.

sigma-1 receptor = molecular target: T1, sigma-1 receptor (Cavia porcellus, UniProt Q60492); assay: Competitive radioligand binding assay 2, guinea pig brain membrane homogenates; conditions: read-out: Sigma-1 (Ki, nM) ±mean SEM
T1 construct: from tissue; host or cells: guinea pig brain membrane homogenates
Protocol: The affinity of candidate sigma-2 ligand compounds at sigma-1 and sigma-2 receptors was also determined by displacement of different known labeled sigma-2 or sigma-1 ligands. Filtration assays were conducted according the previously published procedure (Xu, et al., 2005). Test compounds were dissolved in N,N-Dimethylformamide (DMF), dimethyl sulfoxide (DMSO) or ethanol and then diluted in 50 mM Tris-HCl pH 7.4 buffer containing 150 mM NaCl and 100 mM EDTA. Membrane homogenates were made from guinea pig brain for sigma-1 binding assay and rat liver for sigma-2 binding assay. Membrane homogenates were diluted with 50 mM Tris-HCl buffer, pH 8.0 and incubated at 25° C. in a total volume of 150 uL in 96 well plates with the radioligand and test compounds with concentrations ranging from 0.1 nM to 10 uM. […] A Wallac 1450 MicroBeta liquid scintillation counter (Perkin Elmer, Boston, Mass.) was used to quantitate the bound radioactivity.
The binding affinity, Ki values was calculated using the method of Cheng and Prusoff. […]

[1] = system: Abeta oligomer-induced membrane trafficking deficits; assay: Membrane trafficking/exocytosis (MTT) assay in mature primary hippocampal neurons; assay type: cell-based, rat; conditions: for Membrane trafficking when dosed in the absence of Abeta: compound alone
Protocol: The present exocytosis assay was adapted for use with mature primary neuronal cultures grown for 3 weeks in vitro.
The methods used to generate the results were as follows in the Membrane Trafficking/Exocytosis (MTT) assay.
Primary hippocampal neurons from E18 Sprague-Dawley rat embryos were plated at optimized concentrations in 384 well plates in NB media (Invitrogen). Neurons were maintained in cultures for 3 weeks, with twice weekly feeding of NB media with N2 supplement (Invitrogen).
[…] MTT reagent (3-(4,5-dimethylthizaol-2yl)-2,5diphenyl tetrazolium bromide) (Roche Molecular Biochemicals) was reconstituted in phosphate buffered saline to 5 mg/mL. 10 μL of MTT labeling reagent is added to each well and incubated at 37° C. for 1 h, then imaged. Exocytosis was assessed by automated microscopy and image processing to quantify the amount of endocytosed and exocytosed formazan.
Each assay plate was formatted so that compounds are tested with and without Abeta oligomer on each plate.

[2] = system: SKOV-3 human ovarian cancer cell line; assay: MTS tumor cell viability assay; assay type: cell-based; conditions: agonist/antagonist call relative to siramesine
Protocol: The cytotoxicity of compounds shown below was determined using the CellTiter96 Aqueous One Solution Assay (Promega, Madison, Wis.). […] The plate was read at 490 nm in a Victor3 plate reader (PerkinElmer Life and Analytical Sciences, Shelton, Conn.). The EC^50 value, defined as the concentration of the sigma ligand required to inhibit cell viability by 50% relative to untreated cells, was determined from the dose response curve for each cell line.

[3] = system: caspase-3 activity in neurons; assay: Caspase-3 activity assay in neurons; assay type: cell-based
Protocol: The activation of endogenous caspase-3 by sigma-2 receptor ligands was measured using the Caspase-3 Colorimetric Activity Assay Kit (Milipore, Billerica, Mass.) according to the manufacture's protocol. Briefly, MDA-MB 435 or MDA-MB23I cells were plated at 0.5×10^6 cells 100 mm dish. 24 hours after plating, sigma-2 ligands were added to the culture dishes to induce caspase 3 activation. The final concentration of the sigma-2 ligand was its EC50. 24 hours after treatment, cells were harvested, lysed in 300 uL of Cell Lysis Buffer, and centrifuged for 5 minutes at 10,000×g. Supernatant was collected and incubated with caspase-3 substrate, DEVD-pNA, for 2 hours at 37° C. […] Compounds IXa,IXb and II behaved like sigma-2 […] in both cancer cells and neurons.

T1 sequence (Q60492 whole entry): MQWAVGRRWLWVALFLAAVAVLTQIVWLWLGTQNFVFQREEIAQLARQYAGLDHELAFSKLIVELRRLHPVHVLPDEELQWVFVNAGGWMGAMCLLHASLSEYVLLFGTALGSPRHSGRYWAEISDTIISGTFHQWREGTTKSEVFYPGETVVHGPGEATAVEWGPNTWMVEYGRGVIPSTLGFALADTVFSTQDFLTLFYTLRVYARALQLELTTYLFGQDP

COc1cc(CCC(C)NCc2ccc(C(F)(F)F)cc2)ccc1O (stereo not drawn) [Compound II]
Number of receptors with activity >50% (assay window) out of 100 (100 known receptors): 5 | Ki (sigma-1 receptor): 108 ± 19.9 nM | Membrane trafficking deficits induced by AD brain-derived Abeta oligomers ([1]; 137 pM oligomers, Compound II 15 uM): eliminates the membrane trafficking deficits; also recorded: completely eliminated | Abeta oligomer-induced membrane traffic changes ([1]; 15 micromolar Compound II): blocked | Assay effects in the absence of Aβ ([1]; Table 10A, trafficking or synapse number without Abeta oligomer): No | Functional Neuronal Phenotype ([1]; Table 10B): Antagonist | Conc at Max Inhib. of Abeta ([1]; Table 11, figure in brackets): 10 | Membrane trafficking when dosed in the absence of Abeta [1]: does not affect trafficking | Membrane trafficking when dosed in the absence of Abeta ([1]; listed as CT0109): no significant effect | Action [2]: Antagonist | Induction of caspase-3 activity [3]: did not induce caspase-3 activity | Block of caspase-3 activation caused by sigma-2 receptor agonist SV-119 ([3]; 24 hours): blocked caspase-3 activation
